This passage reports inhibition results from publication PMC6934184, “Selective DNA-PKcs inhibition extends the therapeutic index of localized radiotherapy and chemotherapy” (The Journal of Clinical Investigation, 2019).

In this assay the target is T1, TLK2 (Homo sapiens, UniProt Q86UE8).
T1 construct: purchased Thermo Fisher Scientific (Life Technologies) SelectScreen
The assay is described as follows: SelectScreen LanthaScreen. In kind it is binding. Particulars: read-out: % displacement. The procedure, abridged:
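NU5455 was profiled across the SelectScreen Broad panel of kinase activity and binding assays. Z'LYTE reactions such as CSF1R ran at apparent Km ATP, while the Adapta CAMK1 assay used ATP listed as 10. Values are given as percent.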
On the technique in general: In TR-FRET formats the signal depends on donor and acceptor labels being close together.

T1 sequence (Q86UE8 whole entry): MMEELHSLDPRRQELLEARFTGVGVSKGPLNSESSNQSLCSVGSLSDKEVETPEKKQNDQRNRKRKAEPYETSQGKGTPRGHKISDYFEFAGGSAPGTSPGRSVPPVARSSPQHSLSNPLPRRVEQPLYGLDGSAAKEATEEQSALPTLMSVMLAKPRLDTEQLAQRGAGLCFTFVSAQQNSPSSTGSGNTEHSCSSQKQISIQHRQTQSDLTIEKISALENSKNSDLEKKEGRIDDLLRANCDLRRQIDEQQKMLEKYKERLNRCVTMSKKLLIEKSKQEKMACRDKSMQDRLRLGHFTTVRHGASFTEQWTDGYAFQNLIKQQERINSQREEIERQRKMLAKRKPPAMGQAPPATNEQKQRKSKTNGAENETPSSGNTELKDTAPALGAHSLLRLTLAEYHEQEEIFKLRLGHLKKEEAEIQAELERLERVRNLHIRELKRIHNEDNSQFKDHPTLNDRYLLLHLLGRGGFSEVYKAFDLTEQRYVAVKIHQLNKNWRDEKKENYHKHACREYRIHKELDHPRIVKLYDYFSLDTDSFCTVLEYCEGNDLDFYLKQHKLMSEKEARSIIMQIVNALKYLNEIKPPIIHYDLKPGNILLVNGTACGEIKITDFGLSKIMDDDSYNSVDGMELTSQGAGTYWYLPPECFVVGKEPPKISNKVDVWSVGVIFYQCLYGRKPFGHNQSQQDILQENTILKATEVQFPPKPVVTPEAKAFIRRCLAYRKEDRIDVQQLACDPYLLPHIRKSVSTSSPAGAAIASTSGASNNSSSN

For `CN(C(=O)CN1CCOCC1)c1ccc2sc3c(-c4cccc5c(=O)cc(N6CC7CCC(C6)O7)oc45)cccc3c2c1` [NU5455], the inhibition at 1 µM was -0.3%.
